# US12018258B2, “Mobile-CRISPRi plasmids and related methods” (CZ Biohub SF, LLC, priority 2019, dated 2024)
# Key:
# [1] = system: Enterobacter aerogenes; details: MIC assay, n=3
# Method: (§1) MIC assays were performed using the broth microdilution method as previously described in Wiegand et al. Agar and broth dilution methods to determine the minimal inhibitory concentration (MIC) of antimicrobial substances. Nat. Protoc. 3, 163 (2008) (28), except that 0.1% arabinose (for P. aeruginosa) or 100 μM IPTG (for E. aerogenes) was added to induce dcas9 expression, and K. pneumoniae cultures were shaken to reduce clumping. Three biological replicates were grown for MIC assays. Growth curves shown in FIG. 3 were set up in exactly the same manner as the MIC assays, except that cultures were grown with agitation in a plate reader (BioTek) for ˜16 hrs. P-values for comparing MICs between control sgRNA and folA sgRNA strains were obtained using an unpaired two-tailed t-test with Welch's correction to account for unequal variances between samples and calculated using GraphPad Prism 7.0e.
# [2] = system: Klebsiella pneumoniae; details: MIC assay, n=3
# Method: as §1
# [3] = system: pathogenic Gammaproteobacteria associated with antibiotic resistance
# Method: MIC assays were performed using the broth microdilution method as previously described in Wiegand et al. Agar and broth dilution methods to determine the minimal inhibitory concentration (MIC) of antimicrobial substances. […] 3, 163 (2008) (28), except that 0.1% arabinose (for P. aeruginosa) or 100 μM IPTG (for E. aerogenes) was added to induce dcas9 expression, and K. pneumoniae cultures were shaken to reduce clumping. Three biological replicates were grown for MIC assays. […] P-values for comparing MICs between control sgRNA and folA sgRNA strains were obtained using an unpaired two-tailed t-test with Welch's correction to account for unequal variances between samples and calculated using GraphPad Prism 7.0e.
smiles,measurement,setting,value
COc1cc(Cc2cnc(N)nc2N)cc(OC)c1OC [trimethoprim],sensitivity to trimethoprim after CRISPRi knockdown of folA,[1],increased sensitivity
same,sensitivity to trimethoprim after CRISPRi knockdown of folA,[2],increased sensitivity
same,growth of the folA knockdown strains,"[3]; trimethoprim concentrations below the MIC for the wild type bacteria, data not shown",completely inhibited growth
same,shift of the minimal inhibitory concentration (MIC),[3]; {},2-4 fold
